Measurements as given in the NIST ThermoML archive (doi:10.1021/je2003012).
Where “and” joins values, the source holds several entries; their conditions need not be identical. Equal entries are not always repeated.

Test: relative permittivity at various frequencies (dimensionless); wn = mass fraction of the nth substance listed
Details: Liquid, direct capacitance:P =

O=C=O [carbon dioxide] + CCO
Details	relative permittivity
322.4 K, 11900 kPa, w2 = 0.1	1.94
322.4 K, 12200 kPa, w2 = 0.1	1.96
322.4 K, 13700 kPa, w2 = 0.1	2.01
322.4 K, 13900 kPa, w2 = 0.1	2.02
322.4 K, 15700 kPa, w2 = 0.1	2.06
322.4 K, 15800 kPa, w2 = 0.1	2.07
322.4 K, 16700 kPa, w2 = 0.1	2.09
322.4 K, 17100 kPa, w2 = 0.1	2.09
322.4 K, 17600 kPa, w2 = 0.1	2.11
322.4 K, 18600 kPa, w2 = 0.1	2.13
322.4 K, 19600 kPa, w2 = 0.1	2.14
322.4 K, 20600 kPa, w2 = 0.1	2.16
322.4 K, 21600 kPa, w2 = 0.1	2.18
322.4 K, 21700 kPa, w2 = 0.1	2.18
322.4 K, 22600 kPa, w2 = 0.1	2.19
322.4 K, 23600 kPa, w2 = 0.1	2.21
322.4 K, 24500 kPa, w2 = 0.1	2.22
322.4 K, 25500 kPa, w2 = 0.1	2.23
322.4 K, 26500 kPa, w2 = 0.1	2.24
322.4 K, 27500 kPa, w2 = 0.1	2.26
322.4 K, 28400 kPa, w2 = 0.1	2.27
322.4 K, 29900 kPa, w2 = 0.1	2.28
322.5 K, 10200 kPa, w2 = 0.05	1.53
322.5 K, 12100 kPa, w2 = 0.05	1.63
322.5 K, 13100 kPa, w2 = 0.05	1.66
322.5 K, 14200 kPa, w2 = 0.05	1.7
322.5 K, 14700 kPa, w2 = 0.05	1.7
322.5 K, 16000 kPa, w2 = 0.05	1.73
322.5 K, 16100 kPa, w2 = 0.05	1.73
322.5 K, 17200 kPa, w2 = 0.05	1.75
322.5 K, 18900 kPa, w2 = 0.05	1.78
322.5 K, 19500 kPa, w2 = 0.05	1.79
322.5 K, 20800 kPa, w2 = 0.05	1.8
322.5 K, 21800 kPa, w2 = 0.05	1.81
322.5 K, 22700 kPa, w2 = 0.05	1.82
322.5 K, 23600 kPa, w2 = 0.05	1.83
322.5 K, 24700 kPa, w2 = 0.05	1.84
322.5 K, 25800 kPa, w2 = 0.05	1.85
322.5 K, 26300 kPa, w2 = 0.05	1.86
322.5 K, 27900 kPa, w2 = 0.05	1.87
322.5 K, 28400 kPa, w2 = 0.05	1.87
322.5 K, 29300 kPa, w2 = 0.05	1.88
322.5 K, 29500 kPa, w2 = 0.05	1.88
322.5 K, 30300 kPa, w2 = 0.05	1.89
323.3 K, 9900 kPa, w2 = 0.152	2.06
323.3 K, 11000 kPa, w2 = 0.152	2.13
323.3 K, 12000 kPa, w2 = 0.152	2.18
323.3 K, 12700 kPa, w2 = 0.152	2.21
323.3 K, 13600 kPa, w2 = 0.152	2.25
323.3 K, 14700 kPa, w2 = 0.152	2.28
323.3 K, 15900 kPa, w2 = 0.152	2.31
323.3 K, 16900 kPa, w2 = 0.152	2.34
323.3 K, 17800 kPa, w2 = 0.152	2.36
323.3 K, 18600 kPa, w2 = 0.152	2.37
323.3 K, 18700 kPa, w2 = 0.152	2.38
323.3 K, 19500 kPa, w2 = 0.152	2.4
323.3 K, 20300 kPa, w2 = 0.152	2.41
323.3 K, 21700 kPa, w2 = 0.152	2.44
323.3 K, 22800 kPa, w2 = 0.152	2.45
323.3 K, 23100 kPa, w2 = 0.152	2.46
323.3 K, 23500 kPa, w2 = 0.152	2.47
323.3 K, 24500 kPa, w2 = 0.152	2.48
323.3 K, 25400 kPa, w2 = 0.152	2.5
323.3 K, 26500 kPa, w2 = 0.152	2.51
323.3 K, 28400 kPa, w2 = 0.152	2.54
323.3 K, 29500 kPa, w2 = 0.152	2.56
323.4 K, 9800 kPa, w2 = 0.212	2.59
323.4 K, 10600 kPa, w2 = 0.212	2.61
323.4 K, 11500 kPa, w2 = 0.212	2.67
323.4 K, 12400 kPa, w2 = 0.212	2.71
323.4 K, 13100 kPa, w2 = 0.212	2.75
323.4 K, 14100 kPa, w2 = 0.212	2.79
323.4 K, 15800 kPa, w2 = 0.212	2.85
323.4 K, 16600 kPa, w2 = 0.212	2.87
323.4 K, 17800 kPa, w2 = 0.212	2.9
323.4 K, 18800 kPa, w2 = 0.212	2.93
323.4 K, 19600 kPa, w2 = 0.212	2.95
323.4 K, 19700 kPa, w2 = 0.212	2.95
323.4 K, 21100 kPa, w2 = 0.212	2.98
323.4 K, 22900 kPa, w2 = 0.212	3.03
323.4 K, 23100 kPa, w2 = 0.212	3.03
323.4 K, 23200 kPa, w2 = 0.212	3.03
323.4 K, 24700 kPa, w2 = 0.212	3.06
323.4 K, 26000 kPa, w2 = 0.212	3.08
323.4 K, 26700 kPa, w2 = 0.212	3.1
323.4 K, 27900 kPa, w2 = 0.212	3.12
323.4 K, 29500 kPa, w2 = 0.212	3.14
323.4 K, 30600 kPa, w2 = 0.212	3.15
333.2 K, 10500 kPa, w2 = 0.05	1.32
333.2 K, 11200 kPa, w2 = 0.05	1.41
333.2 K, 11900 kPa, w2 = 0.212	2.38
333.2 K, 12100 kPa, w2 = 0.05	1.48
333.2 K, 12900 kPa, w2 = 0.212	2.45
333.2 K, 13000 kPa, w2 = 0.05	1.54 and 1.53
333.2 K, 13200 kPa, w2 = 0.212	2.47
333.2 K, 13700 kPa, w2 = 0.05	1.57
333.2 K, 14100 kPa, w2 = 0.212	2.52
333.2 K, 14700 kPa, w2 = 0.212	2.54
333.2 K, 14900 kPa, w2 = 0.05	1.62
333.2 K, 15800 kPa, w2 = 0.212	2.59
333.2 K, 15900 kPa, w2 = 0.05	1.64
333.2 K, 16200 kPa, w2 = 0.212	2.61
333.2 K, 16900 kPa, w2 = 0.212	2.62
333.2 K, 17000 kPa, w2 = 0.05	1.67
333.2 K, 17300 kPa, w2 = 0.212	2.64
333.2 K, 17600 kPa, w2 = 0.05	1.69
333.2 K, 18500 kPa, w2 = 0.212	2.68
333.2 K, 19100 kPa, w2 = 0.05	1.72
333.2 K, 19100 kPa, w2 = 0.212	2.7
333.2 K, 19200 kPa, w2 = 0.212	2.7
333.2 K, 19400 kPa, w2 = 0.05	1.72
333.2 K, 21000 kPa, w2 = 0.05	1.75
333.2 K, 21200 kPa, w2 = 0.212	2.75
333.2 K, 21300 kPa, w2 = 0.212	2.75
333.2 K, 21600 kPa, w2 = 0.05	1.75
333.2 K, 22900 kPa, w2 = 0.05	1.77
333.2 K, 23000 kPa, w2 = 0.212	2.79
333.2 K, 23100 kPa, w2 = 0.212	2.79
333.2 K, 23700 kPa, w2 = 0.05	1.78
333.2 K, 24900 kPa, w2 = 0.212	2.83
333.2 K, 25000 kPa, w2 = 0.05	1.8
333.2 K, 25000 kPa, w2 = 0.212	2.83
333.2 K, 25200 kPa, w2 = 0.212	2.83
333.2 K, 25500 kPa, w2 = 0.212	2.85
333.2 K, 26800 kPa, w2 = 0.212	2.86
333.2 K, 26900 kPa, w2 = 0.05	1.82
333.2 K, 27000 kPa, w2 = 0.212	2.87
333.2 K, 27400 kPa, w2 = 0.05	1.82
333.2 K, 28400 kPa, w2 = 0.212	2.9
333.2 K, 28800 kPa, w2 = 0.05	1.83
333.2 K, 29900 kPa, w2 = 0.05	1.84
333.2 K, 30600 kPa, w2 = 0.212	2.94
333.3 K, 11800 kPa, w2 = 0.152	1.99
333.3 K, 11900 kPa, w2 = 0.1	1.74
333.3 K, 12900 kPa, w2 = 0.1	1.81
333.3 K, 12900 kPa, w2 = 0.152	2.07
333.3 K, 13700 kPa, w2 = 0.1	1.86
333.3 K, 13800 kPa, w2 = 0.152	2.11
333.3 K, 14800 kPa, w2 = 0.1	1.9
333.3 K, 14800 kPa, w2 = 0.152	2.16
333.3 K, 15700 kPa, w2 = 0.1	1.94
333.3 K, 15900 kPa, w2 = 0.152	2.2
333.3 K, 16700 kPa, w2 = 0.1	1.96
333.3 K, 16700 kPa, w2 = 0.152	2.22
333.3 K, 17700 kPa, w2 = 0.152	2.26
333.3 K, 17800 kPa, w2 = 0.1	2
333.3 K, 18500 kPa, w2 = 0.1	2.01
333.3 K, 18700 kPa, w2 = 0.152	2.28
333.3 K, 19400 kPa, w2 = 0.1	2.03
333.3 K, 19600 kPa, w2 = 0.1	2.03
333.3 K, 19700 kPa, w2 = 0.152	2.31
333.3 K, 20600 kPa, w2 = 0.1	2.06
333.3 K, 20800 kPa, w2 = 0.152	2.33
333.3 K, 21700 kPa, w2 = 0.1	2.08
333.3 K, 22000 kPa, w2 = 0.152	2.36
333.3 K, 22600 kPa, w2 = 0.1	2.09
333.3 K, 22700 kPa, w2 = 0.152	2.37
333.3 K, 23500 kPa, w2 = 0.152	2.38
333.3 K, 23900 kPa, w2 = 0.1	2.11
333.3 K, 24500 kPa, w2 = 0.152	2.4
333.3 K, 24800 kPa, w2 = 0.1	2.12
333.3 K, 25200 kPa, w2 = 0.1	2.13
333.3 K, 25600 kPa, w2 = 0.1	2.14 and 2.13
333.3 K, 25600 kPa, w2 = 0.152	2.42
333.3 K, 26500 kPa, w2 = 0.1	2.15
333.3 K, 26600 kPa, w2 = 0.1	2.15
333.3 K, 26600 kPa, w2 = 0.152	2.43
333.3 K, 27200 kPa, w2 = 0.1	2.16
333.3 K, 27500 kPa, w2 = 0.1	2.16
333.3 K, 27600 kPa, w2 = 0.152	2.45
333.3 K, 27900 kPa, w2 = 0.1	2.16
333.3 K, 28400 kPa, w2 = 0.152	2.46
333.3 K, 28500 kPa, w2 = 0.1	2.17
333.3 K, 29200 kPa, w2 = 0.1	2.18
333.3 K, 29200 kPa, w2 = 0.152	2.47
333.3 K, 29900 kPa, w2 = 0.152	2.48
